Measured values from US20190256822A1, “HEPATIC CELL LINE RESISTANT TO DIMETHYL SULFOXIDE, CELL CULTURE AND USES THEREOF” (Academisch Medisch Centrum, priority 2016, published 2019).
One block for each molecule: values may come before it.

Experiments:
[1] = system: HepaRG+/-CAR monolayer cultures
Description: At the 0 h time point the cells were incubated for 5 s to correct for non-specific binding of the added compounds to the cells and the culture plate. Medium samples of the indicated time points were immediately frozen at −80° C. Prior to HPLC analysis samples were thawed on ice and deproteinized with the addition of 4 volumes of acetonitrile (for prednisolone and theophylline), vacuum evaporated and dissolved in water. Warfarin samples were instead deproteinized with 2 volumes of methanol and spun down for 5 minutes at 20000 g at 4° C. Supernatants were used for HPLC analysis.
Reverse-phase HPLC detection was done as follows. Deproteinized samples (100 μl for prednisolone and theophylline, 30 μl for warfarin) were applied to a Hypersil C18, 3 μm, 15 cm HPLC column (Thermo Scientific). Starting eluent consisted of 6.8 mM ammoniumformate (pH 3.9), followed by several steps of linear gradients to different concentrations of acetonitrile (ACN) (Biosolve, Valkenswaard, The Netherlands). […] Detection of prednisolone was performed at λabs=254 nm, theophylline at λabs=270 nm, warfarin at λexc=310 nm/λem=390 nm. Quantification was done by using calibration curves of prednisolone, theophylline, or warfarin.

CAR target gene CYP2B6 = experiment: CYP induction: CYP2B6 transcript levels after CITCO (CAR inducer); type: cell-based, human
AHR target gene CYP1A2 = settings: 24 h, 40 μM
Description: (§1) RT-qPCR measurements were performed on a Lightcycler 480 (Roche) with Sensifast SYBR Green master mix (Bioline) according to manufacturer's instructions. […] Normalized mRNA levels are expressed as a percentage of the mean mRNA levels of two human liver samples normalized to 18S rRNA. The human liver samples were obtained from two female patients with liver adenoma and no elevated liver damage. […] The samples were taken after obtaining written informed consent and the procedure was approved by the Academic Medical Center's committee on human experimentation (protocol number 03/024).
Transcript levels of CYP genes were compared in cultures with and without induction.

CAR mRNA = CAR mRNA levels after culture with DMSO; type: cell-based, human
Description: as §1

HepaRG cells [2] = experiment: Mitochondrial content (mitochondrial to nuclear DNA ratio) after culture with DMSO; type: cell-based, human; settings: vs cells not cultured in presence of DMSO
Source text: (§2) To assess the cellular mitochondrial content the inventors determined the mitochondrial/nuclear DNA ratio. Total DNA was isolated with the QIAamp DNA Mini Blood kit (QIAgen) according to manufacturer's instructions.
(§3) For a list of PCR-primers used, see supplementary table 1.

HepG2 cells [3] = experiment: as above; type: cell-based, human; settings: HepG2-CAR cultured with DMSO vs HepG2-CAR without DMSO
Source text: as §2, §3

HepG2 cells [4] = settings: human, 1.7 %
Description: HepG2 cells were maintained in T75 flasks until 80-90% confluency after which they were propagated in new flasks. The cells were propagated similarly as HepaRG cells. HepG2 cells were seeded at a 1:3-1:4 ratio in 12 or 24 well plates.
(§4) Protein levels of cell cultures were assessed with the Bio-Rad Protein Assay (Bio-Rad, Hercules, Calif.) according to manufacturer's instructions after lysis in 0.2 M NaOH for 1 h at 37° C.

HepaRG cells [5] = experiment: Lactate production after culture with DMSO; type: cell-based, human
Description: The cultures were washed twice with PBS and then exposed to phenol-red free HepaRG culture medium with 1.5 mM ^15NH4Cl (Sigma), 2.27 mM D-galactose (Sigma), and 2 mM L-lactate (Sigma) without DMSO. Medium samples were taken after 45 min, 8 and 24 hours of incubation. Production or elimination rates were established by calculating the concentration changes of different compounds, as indicated below, in the test media in time, and were corrected for protein content per well.

HepaRG cells [6] = settings: human, 14 days, 1.7 %
Description: For testing, the cells were fully matured during 28 days in 12- or 24-well culture plates. […] For testing the effect of CAR overexpression HepaRG and HepaRG-CAR cultures of similar passage (±1 passage) were compared, between passage 15-19.
as §4

HepaRG monolayers = settings: cited from earlier work

SMILES: Clc1ccc(-c2nc3sccn3c2/C=N/OCc2ccc(Cl)c(Cl)c2)cc1 [CITCO]
fold induction of CYP2B6 transcript (CAR target gene CYP2B6; CITCO 1 μM, 24 h, control and modified HepaRG monolayers, independent of DMSO treatment): 4.2-6.1 × | fold induction of CYP2B6 transcript (CAR target gene CYP2B6; control HepaRG BALIAD culture without DMSO, CITCO 24 h): 6.5 × | fold induction of CYP2B6 transcript (CAR target gene CYP2B6; modified HepaRG BALIAD culture without DMSO, CITCO 24 h): 3.6 × | total CYP2B6 mRNA level after induction, of human liver (CAR target gene CYP2B6; modified HepaRG BALIAD, CITCO 24 h): ≤ 1023% | total CYP2B6 transcript level after induction, of human liver (CAR target gene CYP2B6; modified HepaRG monolayer, CITCO 24 h): ≤ 430%

SMILES: CC(=O)CC(c1ccccc1)c1c(O)c2ccccc2oc1=O (centres unmarked) [warfarin]
clearance rate in HepaRG-CAR cultured with DMSO compared to all other conditions [1]: cleared at an increased rate | period of linear clearance ([1]; human, 1 μM): 24 to 48 h

SMILES: C[C@]12C=CC(=O)C=C1CC[C@@H]1[C@@H]2[C@@H](O)C[C@@]2(C)[C@H]1CC[C@]2(O)C(=O)CO [prednisolone]
clearance rate in HepaRG-CAR cultured with DMSO compared to all other conditions [1]: cleared at an increased rate

More lines, main results first:

clearance [1]: could not reliably observe any clearance
SMILES: Cn1c(=O)c2[nH]cnc2n(C)c1=O [theophylline, theophylline anhydrous]

total CYP1A2 mRNA level after induction, of human liver (AHR target gene CYP1A2): ≤ 31% | total CYP1A2 transcript level after induction, of human liver (AHR target gene CYP1A2): ≤ 23%
SMILES: COc1ccc2[nH]c([S+]([O-])Cc3ncc(C)c(OC)c3C)nc2c1 (centres unmarked) [omeprazole]

reduction of total protein content (HepG2 cells [4]): 15%-18 | reduction of protein content (HepaRG cells [6]): 40% | reduction of total protein content (HepaRG cells [6]): 19%
SMILES: C[S+](C)[O-] [DMSO, dimethyl sulfoxide]
CAR mRNA level, of human liver (CAR mRNA; control HepaRG cells cultured with DMSO (5.3% without)): 15% | CAR mRNA level, of human liver (CAR mRNA; modified HepaRG cells cultured with DMSO (108% without)): 208% | increase of mitochondrial to nuclear DNA ratio (HepaRG cells [2]; HepaRG-CAR monolayer): 2 × | increase of mitochondrial to nuclear DNA ratio (HepaRG cells [2]; unmodified HepaRG monolayer): 1.8 × | increase of mitochondrial to nuclear DNA ratio (HepG2 cells [3]): 1.3 × | reduction of lactate production (HepaRG cells [5]; HepaRG-CAR monolayer cultured with DMSO vs control cells without DMSO): 92% | reduction of lactate production (HepaRG cells [5]; control HepaRG monolayer cultured with DMSO vs control cells without DMSO): 57% | increase of cell leakage (HepaRG monolayers): 3- to 4 fold | reduction of total cellular protein content (HepaRG monolayers): more than 50%
